Article PMC8819286 (Cancer Science, 2021)
Read-outs that look alike come from different tables or passages of the source.

Assays:
[1] = tested on: EGFR^19del/T790M/C797S–triple‐mutant cells; details: cited from earlier work
[2] = tested on: BaF3‐EGFR^19del/T790M/C797S cells; test: Proliferation assay; assay type: cell-based; details: 72 h, read-out: IC50, antiproliferative, BaF3‐EGFR^19del/T790M/C797S
[3] = tested on: BaF3‐EGFR^19del/T790M cells; test: Proliferation assay; assay type: cell-based; details: 72 h, read-out: IC50, antiproliferative, BaF3‐EGFR^19del/T790M
PC‐9 (EGFR^19del) cells = test: Proliferation assay; assay type: cell-based; details: Homo sapiens, PC-9, 72 h, read-out: IC50, antiproliferative, PC‐9 cells
[4] = tested on: PC‐9‐OR cells (EGFR^19del/T790M/C797S); test: Proliferation assay; assay type: cell-based; details: PC9-OR, 72 h, read-out: IC50, antiproliferative, PC‐9‐OR cells
[5] = tested on: BaF3‐EGFR^19del/T790M/C797S cells; test: Apoptosis, Annexin V‐FITC/PI flow cytometry; assay type: cell-based; details: concentrations between 30 nmol/L and 300 nmol/L, 48 h
PC‐9‐OR cells = test: Apoptosis, Annexin V‐FITC/PI flow cytometry; assay type: cell-based; details: concentrations between 30 nmol/L and 300 nmol/L, 48 h
EGFR^T790M patients = details: cited from earlier work

Compound: COc1cc(N2CCC(N3CCN(C)CC3)CC2)ccc1Nc1ncc(Cl)c(Nc2ccccc2P(C)(C)=O)n1 [Brigatinib]
- effectiveness against EGFR^19del/T790M/C797S–triple‐mutant cells ([1]; in vitro and in vivo): effective

Compound: O=C(Nc1nccs1)C(c1cc(F)ccc1O)N1Cc2ccccc2C1=O (stereo not shown) [EAI045]
- effectiveness against EGFR^19del/T790M/C797S–triple‐mutant cells [1]: not effective

Compound: O=C(Nc1nccs1)C(c1cc(F)ccc1O)N1Cc2ccc(-c3ccc(N4CCNCC4)cc3)cc2C1=O (stereo not shown) [JBJ‐04‐125‐02]
- effectiveness against EGFR^19del/T790M/C797S–triple‐mutant cells [1]: not effective

Compound: C=CC(=O)Nc1cc(Nc2nccc(-c3cn(C)c4ccccc34)n2)c(OC)cc1N(C)CCN(C)C [Osimertinib]
- IC50 [2]: 3.38 µM
- IC50 [3]: 0.04 µM
- IC50 (PC‐9 (EGFR^19del) cells): 0.08 µM
- IC50 [4]: 4.85 µM
- apoptosis (in words) [5]: hardly caused any significant apoptosis
- apoptosis (in words) (PC‐9‐OR cells): hardly caused any significant apoptosis
- response rate (EGFR^T790M patients): 61%
